Measured values published in patent US10806794B2, “Protease inhibitors having enhanced features” (priority 2008, dated 2020).
Where two headings read alike, the source gives them in different places.

What was measured:
[1] = in vitro; details: human
Procedure: Absorption properties of various compounds were measured using bi-directional permeability assays in Caco-2 cells. […] The efflux ratio is calculated as the ratio of the Papp(B→A)/Papp(A→B).

[2] = Plasma protein binding by equilibrium dialysis, human plasma; assay type: in vitro ADME; details: human plasma, 5 μM, fraction unbound; read-out: Plasma Protein Binding Fu ± SD
Summary of the method: (§1)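 Two-hour dialysis at 37 °C separated plasma containing 5 μM test compound (0.5% DMSO) from plasma-free buffer; concentrations in both compartments were then determined by LC-MS/MS.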

[3] = test system: CEM-SS cells; experiment: CEM-SS macromolecule synthesis (tritiated precursor incorporation); assay type: cell-based; details: for Thymidine incorportation (CEM-SS) TC50: DNA synthesis; for Uridine incorporation (CEM-SS) TC50: RNA synthesis; for Leucine Incorporation (CEM-SS) TC50: protein synthesis
Procedure: (§2) Cellular macromolecule synthesis was evaluated using tritiated precursor incorporation assays. CEM-SS cells (2.5×10^3 cells/well) were cultured in the presence or absence of test compound for 7 days at 37 C, 5% CO2 in a 96-well microtiter plate. On day 6 of the incubation, 1 uCi of [methyl-3H]-thymidine for DNA synthesis, [5-3H]-uridine for RNA synthesis, or [3,4,5-3H]-leucine for protein synthesis was added to compound-treated cells, and the plate was further incubated for 16 hours. The cells were transferred to a glass fiber filtermat using an Inotech cell harvester. The filtermats were washed with distilled water then sealed in a bag with scintillation fluid. Incorporated radioactivity was measured using a Wallac scintillation counter.

[4] = test system: PBMCs; experiment: PBMC macromolecule synthesis (tritiated precursor incorporation); assay type: cell-based, human; details: for Thymidine Incorporation (PBMC) TC50: DNA synthesis; for Uridine Incorporation (PBMC) TC50: RNA synthesis; for Leucine Incorporation (PBMC) TC50: protein synthesis
Procedure: as §2, with “PBMCs (5×10^4” for “CEM-SS cells (2.5×10^3”

[5] = target: CYP2D6 (Homo sapiens (Human), UniProt P10635); experiment: CYP450 inhibition in human liver microsomes: CYP2D6
[6] = test system: monocyte-derived dendritic cells; experiment: Cytotoxicity in monocyte-derived dendritic cells (XTT); assay type: cell-based, human
From the text: Cell viability is directly proportional to the amount of reduced XTT product formed.

[7] = Metabolic stability in human liver microsomes; details: for CLint ± SEM / t1/2: 3 μM;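 on t1/2: microsomal protein 0.5 mg/mL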
Summary of the method: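 Substrate depletion: compounds at 3 μM final with pooled mixed-sex human liver microsomes (0.5 mg/mL) in 0.1 M phosphate pH 7.4 at 37 °C. Remaining parent quantified by LC-MS/MS.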

[8] = test system: cynomolgus monkey hepatocytes; experiment: Metabolic stability in cynomolgus monkey hepatocytes; assay type: in vitro ADME; details: 0.1 uM
[9] = test system: Sprague-Dawley rat hepatocytes; experiment: Metabolic stability in Sprague-Dawley rat hepatocytes; assay type: in vitro ADME; details: 0.1 uM
[10] = test system: beagle dog hepatocytes; experiment: Metabolic stability in beagle dog hepatocytes; assay type: in vitro ADME; details: 0.1 uM
[11] = test system: human plasma proteins; experiment: Plasma protein binding by equilibrium dialysis, human plasma; assay type: in vitro ADME; details: human plasma, 5 μM, fraction unbound
Summary of the method: as §1

[12] = test system: human liver microsomal proteins; experiment: Microsomal protein binding by equilibrium dialysis; assay type: in vitro ADME; details: human liver microsomes, 3 μM, fraction unbound
Summary of the method: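 Compound at 3 μM final in buffer with or without human liver microsomes, dialysed to equilibrium at 37 °C. Both sides quantified by LC-MS/MS to derive fraction unbound (Fu).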

[13] = target: CYP3A4 (Homo sapiens (Human), UniProt P08684); experiment: CYP450 inhibition in human liver microsomes: CYP3A4;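 further: incubation at 37 °C started by adding 1 mM NADPH, with formation of the probe metabolite measured via LC-MS/MS or fluorescent detection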
[14] = test system: human hepatocytes; experiment: Metabolic stability in cryopreserved human hepatocytes; details: human hepatocytes
Summary of the method: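 Test compounds at 0.1 μM or 3 μM incubated with cryopreserved human hepatocytes at 0.5×10^6 viable cells/mL. Sampling up to four hours (0.1 μM) or one or two hours (3 μM), methanol quench, then remaining parent measured by cassette LC-MS/MS.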

[15] = read-out: CYP3A4 IC50 Midazolam, probe substrate midazolam
[16] = read-out: CYP3A4 IC50 Testosterone, probe substrate testosterone

CYP3A4, sequence (P08684 whole entry): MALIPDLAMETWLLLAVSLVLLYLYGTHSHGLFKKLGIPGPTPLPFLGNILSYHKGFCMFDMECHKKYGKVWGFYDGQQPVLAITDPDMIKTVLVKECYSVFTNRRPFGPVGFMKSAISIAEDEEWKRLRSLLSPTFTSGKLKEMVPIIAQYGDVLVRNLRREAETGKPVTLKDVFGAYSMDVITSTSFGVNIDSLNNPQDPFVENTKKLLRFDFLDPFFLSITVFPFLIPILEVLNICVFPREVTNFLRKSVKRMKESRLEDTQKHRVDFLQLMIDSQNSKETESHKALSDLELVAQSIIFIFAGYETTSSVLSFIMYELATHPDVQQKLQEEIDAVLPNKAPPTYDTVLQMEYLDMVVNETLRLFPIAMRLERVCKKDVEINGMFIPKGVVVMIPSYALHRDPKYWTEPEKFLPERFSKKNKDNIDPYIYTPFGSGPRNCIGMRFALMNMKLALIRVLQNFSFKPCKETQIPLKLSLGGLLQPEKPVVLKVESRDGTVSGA
CYP2D6, sequence (P10635 whole entry): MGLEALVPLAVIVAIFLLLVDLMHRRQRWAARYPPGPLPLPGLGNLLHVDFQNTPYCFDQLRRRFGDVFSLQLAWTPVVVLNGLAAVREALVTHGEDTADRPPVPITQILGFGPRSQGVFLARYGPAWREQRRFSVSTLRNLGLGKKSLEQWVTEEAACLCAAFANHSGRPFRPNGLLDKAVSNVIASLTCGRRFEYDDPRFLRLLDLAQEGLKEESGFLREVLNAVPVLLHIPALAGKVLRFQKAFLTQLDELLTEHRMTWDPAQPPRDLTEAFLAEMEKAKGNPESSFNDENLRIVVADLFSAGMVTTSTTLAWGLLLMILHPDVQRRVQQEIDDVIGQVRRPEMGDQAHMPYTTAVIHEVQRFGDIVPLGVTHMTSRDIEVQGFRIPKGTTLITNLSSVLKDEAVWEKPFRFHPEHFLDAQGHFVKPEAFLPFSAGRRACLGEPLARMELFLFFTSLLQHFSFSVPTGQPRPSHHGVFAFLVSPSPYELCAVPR

SMILES | fraction unbound at 2 h, 5 μM [2] | Thymidine incorportation (CEM-SS) TC50 [3] [µM] | Uridine incorporation (CEM-SS) TC50 [3] [µM] | Leucine Incorporation (CEM-SS) TC50 [3] [µM] | Thymidine Incorporation (PBMC) TC50 [4] [µM] | Uridine Incorporation (PBMC) TC50 [4] [µM] | Leucine Incorporation (PBMC) TC50 [4] [µM] | TC50 [6] [µM] | CLint ± SEM ([7]; human liver microsomes) [μL/min/mg protein] | t1/2 ([7]; human liver microsomes) [min] | CLint ± SEM [8] [μL/min/10^6 cells] | t1/2 [8] [h] | Plasma Protein Binding Fu ± SD [11] | Microsomal Protein Binding Fu ± SD [12] | IC50 [13, 15] [µM] | IC50 [13, 16] [µM] | further results
COC(=O)N[C@H](C(=O)N[C@@H](Cc1ccccc1)[C@@H](O)CN(Cc1ccc(-c2ccccn2)cc1)NC(=O)[C@@H](NC(=O)OC)C(C)(C)C)C(C)(C)C [Atazanavir, reference compound] | 0.106 ± 5.25e-05 | 288.3 | 281.4 | 259.6 | 81.1 | 87.2 | 94.7 | – | – | – | – | – | – | – | – | – | Papp A→B ([1]; Caco-2, A→B, ×10^−6): 2.05 ×10⁻⁶ cm/s; IC50 [5]: 14.9 µM
CC(C)CN(C[C@@H](O)[C@H](Cc1ccccc1)NC(=O)O[C@H]1CO[C@H]2OCC[C@H]21)S(=O)(=O)c1ccc(N)cc1 [Darunavir, reference compound] | 0.144 ± 0.0051 | 223.2 | >400 | 285.8 | 184.3 | 189.3 | 258.3 | >200 | – | – | – | – | – | – | – | – | Papp A→B ([1]; Caco-2): 2.55 ×10⁻⁶ cm/s
COCCOCCOCCOc1ccc(C[C@H](NC(=O)O[C@H]2CO[C@H]3OCC[C@H]32)C(O)CN(CC(C)C)S(=O)(=O)c2ccc(N)cc2)cc1 (stereo partly shown) [mPEG3-O-Darunavir] | – | 262.9 | >400 | >400 | 109.6 | 139.4 | 218.9 | >200 | 77.4 ± 9.14 | 17.9 | 8.53 ± 0.563 | 2.72 | 0.274 ± 0.0194 | 0.936 ± 0.0109 | 2.59 | 4.9 | CLint ± SEM [9]: 28.4 ± 0.00359 μL/min/10^6 cells; t1/2 [9]: 48.8 min; CLint ± SEM [10]: 15.5 ± 0.000361 μL/min/10^6 cells; t1/2 [10]: 89.5 min
COCCOCCOCCOCCOCCNc1ccc(S(=O)(=O)N(CC(C)C)CC(O)[C@H](Cc2ccccc2)NC(=O)O[C@H]2CO[C@H]3OCC[C@H]32)cc1 (stereo partly shown) [mPEG5-N-Darunavir] | – | – | – | – | 41.3 | 73.2 | 98.5 | >200 | 440 ± 19.0 | 3.15 | 26.5 ± 0.942 | 0.872 | 0.338 ± 0.0368 | 0.864 ± 0.011 | 2.7 | 4 | CLint ± SEM ([14]; 0.1 uM, up to four hours): 3.94 ± 0.386 μL/min/10^6 cells; t1/2 ([14]; 0.1 uM, up to four hours): 352 min; CLint ± SEM ([14]; 3 uM, incubated up to one hour): 11.9 ± 1.40 μL/min/10^6 cells
COCCOCCOCCOCCOCCOc1ccc(C[C@H](NC(=O)O[C@H]2CO[C@H]3OCC[C@H]32)C(O)CN(CC(C)C)S(=O)(=O)c2ccc(N)cc2)cc1 (stereo partly shown) [mPEG5-O-Darunavir] | – | 165.7 | >400 | >400 | >400.0 | >400.0 | >400.0 | >200 | 198 ± 22.1 | 7.00 | – | – | 0.448 ± 0.0195 | 0.804 ± 0.253 | > 2.5 | > 25 | CLint ± SEM [9]: 37.0 ± 0.00425 μL/min/10^6 cells; t1/2 [9]: 37.5 min; CLint ± SEM [10]: 4.93 ± 0.000253 μL/min/10^6 cells; t1/2 [10]: 281 min
COCCOCCOCCOCCOCCOCCOCCNc1ccc(S(=O)(=O)N(CC(C)C)CC(O)[C@H](Cc2ccccc2)NC(=O)O[C@H]2CO[C@H]3OCC[C@H]32)cc1 (stereo partly shown) [mPEG7-N-Darunavir] | – | – | – | – | – | – | – | >200 | 356 ± 7.74 | 3.89 | 0.286 ± 0.504 | 80.83 | 0.364 ± 0.0298 | 0.973 ± 0.0139 | 5.4 | 12.9 | CLint ± SEM ([14]; 3 uM, incubated up to one hour): 5.13 ± 0.611 μL/min/10^6 cells
COCCOCCOCCOC(=O)NC(C(=O)NC(Cc1ccccc1)C(O)CN(Cc1ccc(-c2ccccn2)cc1)NC(=O)C(NC(=O)OC)C(C)(C)C)C(C)(C)C (stereo not shown) [mono-mPEG3-Atazanavir, {1-[N′-[2-Hydroxy-3-(2-{2-[2-(2-methoxy-ethoxy)-ethoxy]-ethoxycarbonylamino}-3,3-dimethyl-butyrylamino)-4-phenyl-butyl]-N′-(4-pyridin-2-yl-benzyl)-hydrazinocarbonyl]-2,2-dimethyl-propyl}-carbamic Acid Methyl Ester] | 0.217 ± 0.000495 | 396.2 | 396.6 | >400 | 36.6 | 27.7 | 82.0 | – | 172 ± 1.39 | 8.04 | 21.0 ± 0.00203 | 1.1 | – | – | – | – | efflux ratio ([1]; Caco-2): 44; Papp A→B ([1]; Caco-2, A→B, ×10^−6): 0.53 ×10⁻⁶ cm/s; microsomal CLint at 3 μM ([7]; both, human, pooled human liver microsomes, pH 7.4, CLint ± SEM, human liver microsomes): 248 ± 31.7 µL/min/mg; half-life at 3 μM ([7]; both, human, pooled human liver microsomes, pH 7.4, t1/2, human liver microsomes): 5.58 min; IC50 ([13]; CYP3A4 IC50 Midazolam, probe substrate midazolam): 2.85 µM; IC50 ([13]; CYP3A4 IC50 Testosterone, probe substrate testosterone): 12.8 µM; IC50 [5]: > 25 µM
